The source of these data is the supplement of paper PMC4862054.

The subject of test [1] is CAL-85-1. Particulars: 72 h. An outline of the steps: (§1)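 For viability, cells received 2.5 µl CellTiter-Blue for 2 h at 37 °C and fluorescence was read at 560/590 nm. Before this, breast cancer cell lines in 20 µl suspension had been incubated for 72 h on 384-well plates pre-loaded with compound dissolved in 5 µl medium. EC50 was obtained from a percent-inhibition dose-response fit censored at the highest concentration, after normalisation of each plate to vehicle and a positive kill control; rows with a zero drug sensitivity score were discarded.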

The subject of a further test is HDQ-P1. The settings on record: 72 h. The method in brief: as §1
A further test deals with BT-474. The settings on record: 72 h. An outline of the steps: as §1
Test [2] concerns BT-549. Particulars: 72 h. An outline of the steps: as §1
Test [3] concerns HCC1143. Particulars: 72 h. The method in brief:
as §1

The subject of test [4] is HCC1599. Particulars: 72 h. The method in brief: as §1
Test [5] relates to HCC1937. Particulars: 72 h. An outline of the steps: as §1
In test [6] the test system is Hs578T. The settings on record: 72 h. An outline of the steps:
as §1

In test [7] the test system is SK-BR-3. Particulars: 72 h. An outline of the steps: as §1
The test system of test [8] is HCC1937. Nature of the test: drug sensitivity score (DSS), CellTox Green (DSS (AUC-based score)); higher = stronger drug effect (viability inhibition or cytotoxicity); extreme values may be limits of the assay. Particulars: incubation time: 72 h. The method in brief: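 Breast cancer cell lines (20 µl suspension) were seeded into 384-well plates holding compound at 5 concentrations in 10-fold steps over a compound-specific 10,000-fold range, then incubated 72 h. CellTox Green fluorescence (485/520 nm) was read first, then CellTiter-Glo luminescence after 10 min at room temperature. Each plate was normalised to 0.1 % DMSO and a positive kill control. The drug sensitivity score was calculated from the area under the fitted dose-response curve.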

Test [9] has as its system BT-549. The settings on record: 72 h. An outline of the steps:
(§2)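 A 20 µl suspension of breast cancer cells was placed in 384-well plates that already contained compound at 5 concentrations in 10-fold steps across a compound-specific 10,000-fold range, and the plates were left for 72 h. CellTox Green fluorescence at 485/520 nm gave cell death, and CellTiter-Glo luminescence, read after 10 min at room temperature, gave viability. Each plate was normalised to 0.1 % DMSO and a positive kill control. EC50 was fitted from the curves and censored at the top concentration.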
This is another data set of the same source.

The test system of test [10] is CAL-120. Particulars: 72 h. An outline of the steps: as §2
Test [11] has as its system CAL-148. The settings on record: 72 h. An outline of the steps:
as §2

The subject of test [12] is CAL-51. Particulars: 72 h. An outline of the steps: as §2
The subject of test [13] is CAL-85-1. The settings on record: 72 h. The method in brief:
as §2
This is another data set of the same source.

Test [14] concerns DU-4475. The settings on record: 72 h. An outline of the steps: as §2
In test [15] the test system is HCC1143. Particulars: 72 h. An outline of the steps:
as §2
The source holds these as a separate data set.

Test [16] concerns HCC1937. The settings on record: 72 h. The method in brief:
as §2
This is another data set of the same source.

Test [17] has as its system Hs578T. The settings on record: 72 h. The method in brief:
as §2
This is another data set of the same source.

The subject of another test is MCF-10A. Particulars: 72 h. An outline of the steps: as §2
Test [18] has as its system MDA-MB-231. Particulars: 72 h. An outline of the steps: as §2
In test [19] the test system is MDA-MB-436. Particulars: 72 h. An outline of the steps:
as §2

Test [20] relates to MDA-MB-453. The settings on record: 72 h. An outline of the steps: as §2
For test [21], the system named is MFM-223. Particulars: 72 h. The method in brief: as §2
For test [22], the system named is SK-BR-3. Particulars: 72 h. The method in brief:
as §2
The source holds these as a separate data set.

Test [23] deals with CAL-148. Particulars: 72 h. An outline of the steps:
as §1
The source holds these as a separate data set.

The test system of test [24] is CAL-51. The settings on record: 72 h. The method in brief:
as §1
The source holds these as a separate data set.

The test system of test [25] is DU-4475. Particulars: 72 h. An outline of the steps: as §1
This is another data set of the same source.

Test [26] deals with MDA-MB-453. Particulars: 72 h. An outline of the steps: as §1
The source holds these as a separate data set.

Test [27] concerns CAL-120. Particulars: 72 h. The method in brief: as §1
The source holds these as a separate data set.

Test [28] concerns MDA-MB-231. Particulars: 72 h. The method in brief:
as §1
This is another data set of the same source.

Test [29] concerns MDA-MB-468. The settings on record: 72 h. The method in brief:
as §1

The test system of test [30] is MFM-223. Particulars: 72 h. An outline of the steps: as §1
This is another data set of the same source.

In test [31] the test system is CAL-148. Particulars: 72 h. The method, then: (§3)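 Drug sensitivity and resistance testing (DSRT) of breast cancer cell lines in 384-well plates, 5 concentrations in 10-fold dilutions over a compound-specific 10,000-fold range. After 72 h, cytotoxicity was read by CellTox Green fluorescence and viability by CellTiter-Glo luminescence (multiplexed), normalised to DMSO and benzethonium chloride controls. EC50 is the inflection point of the fitted dose-response curve (bottom asymptote free, so it can be relative for partial curves) and is censored at the highest tested concentration. Rows with DSS 0 (no meaningful response) were excluded.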
This is another data set of the same source.

Test [32] has as its system CAL-51. Particulars: 72 h. On the procedure:
as §3
The source holds these as a separate data set.

The test system of test [33] is CAL-85-1. Particulars: 72 h. The method, then:
as §3
This is another data set of the same source.

The test system of test [34] is HCC1937. The settings on record: 72 h. The method, then:
as §3
This is another data set of the same source.

The test system of test [35] is MDA-MB-468. The settings on record: 72 h. The method, then: as §3
This is another data set of the same source.

The subject of test [36] is HCC1599. Particulars: 72 h. An outline of the steps: as §2
This is another data set of the same source.

In test [37] the test system is MDA-MB-436. Particulars: 72 h. An outline of the steps:
as §1
The source holds these as a separate data set.

Test [38] concerns MDA-MB-436. Particulars: 72 h. The method, then:
as §3
This is another data set of the same source.

On to `C[C@]1(O)C[C@@H](c2nc(-c3ccc4ccc(-c5ccccc5)nc4c3)c3c(N)nccn32)C1` [OSI-906], for which the “EC50, CellTiter-Blue viability” value with CAL-85-1 [1] amounted to 7720 nM; in the test on HDQ-P1, 278 nM; in the test on BT-474, 1680 nM; with BT-549 [2], 7100 nM; with HCC1143 [3], 881 nM; in the test with HCC1599 [4], 204 nM. The “EC50, CellTiter-Blue viability” value is 9830 nM with HCC1937 [5], 1910 nM in the test with Hs578T [6] and 105 nM in the test with SK-BR-3 [7].

As for `O=NN(CCCl)C(=O)NCCCl` [Carmustine], the drug sensitivity score with HCC1937 [8] was 0.

In the case of `Cc1sc2c(c1C)C(c1ccc(Cl)cc1)=N[C@@H](CC(=O)OC(C)(C)C)c1nnc(C)n1-2` [(+)JQ1], the “EC50, CellTiter-Glo” value stood at 167 nM in the test on BT-549 [9]; 231 nM with CAL-120 [10]; 920 nM with CAL-148 [11]; 7440 nM with CAL-51 [12]; 316 nM in the test with CAL-85-1 [13]; 956 nM in the test on DU-4475 [14]. Further, the “EC50, CellTiter-Glo” value with HCC1143 [15] came to 753 nM; with HCC1937 [16], 720 nM; in the test with Hs578T [17] it was 126 nM; in the test on MCF-10A, 254 nM; in the test with MDA-MB-231 [18] it was 653 nM; in the test with MDA-MB-436 [19], 749 nM. The entries for the “EC50, CellTiter-Glo” value with MDA-MB-453 [20], in the test on MFM-223 [21] and in the test on SK-BR-3 [22] were 447 nM, 481 nM and 494 nM, respectively. Besides, the “EC50, CellTiter-Blue viability” value with CAL-148 [23] amounted to 676 nM; in the test with CAL-51 [24], 1040 nM; in the test on CAL-85-1 [1] it was 254 nM; in the test with DU-4475 [25], 339 nM; in the test with MDA-MB-453 [26], 172 nM; in the test on BT-549 [2], 320 nM. In addition, the “EC50, CellTiter-Blue viability” value with CAL-120 [27] worked out at 114 nM; with HCC1143 [3], 354 nM; in the test with HCC1599 [4], 406 nM; in the test on HCC1937 [5], 468 nM; in the test on Hs578T [6], 122 nM; in the test with MDA-MB-231 [28], 265 nM. Further, the “EC50, CellTiter-Blue viability” value with MDA-MB-468 [29] was found to be 871 nM; with MFM-223 [30], 243 nM; with SK-BR-3 [7], 337 nM. Further, the “EC50, CellTox Green” value came to 687 nM in the test with CAL-148 [31]; 2330 nM in the test on CAL-51 [32]; 2020 nM in the test with CAL-85-1 [33]; 10 nM in the test on HCC1937 [34]; 1830 nM in the test on MDA-MB-468 [35]. This compound also came in with a drug sensitivity score with HCC1937 [8] of 13.4.

On to `Nc1ncn([C@@H]2O[C@H](CO)[C@@H](O)[C@H]2O)c(=O)n1` [Azacitidine], for which the “EC50, CellTiter-Glo” value in the test on BT-549 [9] is 1280 nM; with HCC1599 [36] it was 1290 nM; with MDA-MB-436 [19], 1120 nM. Moreover, the “EC50, CellTiter-Blue viability” value was 2570 nM in the test on BT-549 [2]; > 10000 nM with CAL-120 [27]; > 10000 nM with HCC1937 [5]; 6120 nM in the test on Hs578T [6]; 1060 nM in the test with MDA-MB-436 [37]; 650 nM in the test on MDA-MB-468 [29]. Also, the “EC50, CellTox Green” value in the test with MDA-MB-436 [38] is > 10000 nM; with MDA-MB-468 [35], 595 nM. The drug sensitivity score in the test on HCC1937 [8] stood at 0.
